# Assay: gradient 5% acetonitrile 3 min, to 50% in 2 min, to 85% in 15 min, held 3 min, 100 µL/min
# Conditions: column: Zorbax Extend-C18 2.1 x 50 mm; eluents: water / acetonitrile, 0.1% formic acid
# Method in brief: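 Data were gathered over 3 months by HPLC coupled to a quadrupole time-of-flight mass spectrometer, operated in positive and negative ionization mode. Mixtures of ~100 pure standards ran on a Zorbax Extend-C18 column (2.1 × 50 mm, 1.8 μm) at 100 μL/min, with water and acetonitrile each containing 0.1% formic acid and dead and dwell volumes of 40 μL and 900 μL. Retention time was read from adduct peaks picked by computer and checked manually.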
row,Compound,RP-LC retention time [s]
1,Cc1nnc2c(=O)n(CC(=O)N3CCCCC3)c3cccnc3n12,616
2,Cc1cnc(C(=O)N2CCC(n3c(C)cnc3C3CCC3)C2)cn1 (centres undefined),560
3,Clc1ccc(-c2nc(N3CCCCCC3)c3ccccc3n2)cc1,847
4,CC1=C(c2ccc(C)cc2)S(=O)(=O)N=C1N1CCCN(C(=O)c2ccc(C#N)cc2)CC1,835
5,Cn1c(N2CCCC(C(=O)NCC3CCN(Cc4ccc(F)cc4)CC3)C2)cc(=O)n(C)c1=O (centres undefined),590
6,CC1Cc2ccccc2N1C(=O)CCC(=O)N1CCCN(c2cc(=O)n(C)c(=O)n2C)CC1 (centres undefined),677
7,CN(C)S(=O)(=O)c1ccc(-n2cnc(C(=O)N3CCN(Cc4ccccc4)CC3)c2)cc1,626
8,CCc1ccc(-c2cc(C(=O)N3CCCN(c4cc(=O)n(C(C)C)c(=O)n4C(C)C)CC3)[nH]n2)cc1,946
9,CC(C)NC(=O)N1CCCC(c2cccc(C(=O)NCCN3CCCCC3)c2)C1 (centres undefined),608
10,CN1C(=O)CC2(C)C1=CCc1scnc12 (centres undefined),636
11,Cc1cc(C)cc(N2CCCn3c2nc2c3c(=O)n(C)c(=O)n2C)c1,841
12,CN1CCC(N2CCN(C(=O)C3CCc4sc(C(=O)N5CCCC5)cc4C3)CC2)CC1 (centres undefined),558
13,CCOC(=O)c1c(S(=O)(=O)N2CCC(C(=O)NCc3ccco3)CC2)c(C)n(C)c1C,740
14,CC(=O)N1CCCC1c1nc(C2CN(C(=O)CCn3cc(C)cn3)C2)no1 (centres undefined),604
15,CCOC(=O)N1CCN(C(=O)c2cc(S(=O)(=O)N3CCOCC3)ccc2OC)CC1,636
16,O=S(=O)(c1ccccc1)c1nnn2c1nc(N1CCN(c3ccccn3)CC1)c1ccccc12,677
17,O=C(Nc1cccc(-c2ccc(N3CCOCC3)nn2)c1)Nc1cccc(C(F)(F)F)c1,782
18,CN(C)C(=O)c1csc(S(=O)(=O)N2CCC(C(=O)N3CCc4ccccc43)CC2)c1,809
19,COCCCN1C(=O)CSc2c(c3ccccc3n2C)C1C(=O)NCCCOC(C)C (centres undefined),825

row,Compound,RP-LC retention time [s]
1,O=c1c2ccccc2ncn1-c1ccc(Cl)cc1,870
2,Cc1noc(C)c1-c1ccc(S(=O)(=O)Nc2ccc(Cl)cc2)cc1,1000
3,Cn1c(=O)c(=O)n(C)c2cc(N3CCCCC3)c(NC(=O)CN3CCOCC3)cc21,608
4,CCOC1CCN(C(=O)NC2CCCC2)CC1,698
5,O=S(=O)(c1ccccc1F)N1CCc2nc(-c3ccccc3)ncc2C1,1010
6,Cc1ccc(-c2nnc(Cc3nc(-c4ccc5c(c4)OCO5)no3)o2)cc1F,1020
7,O=C(NCc1cc(F)ccc1F)C1CCc2nc(N3CCCCC3)ncc2C1 (centres undefined),743
8,Cc1ccc(Nc2cc(N3CCC(C(=O)N4CCC5(CC4)OCCO5)CC3)ncn2)cc1,645
9,O=C(CC1CCCC1)N1[C@H]2CC[C@@H]1c1cnc(-c3ccccc3)nc1C2,1000
10,CCCc1noc(-c2nc(-c3ccccc3F)no2)n1,1090
11,COCc1nnc(-c2ccc3c(c2)OCO3)o1,722
12,COc1ccc(-c2coc3cc(OC(=O)c4ccc5c(c4)OCO5)ccc3c2=O)cc1OC,981
13,C=C1CC(COc2cc(=O)oc3ccccc23)(c2ccccc2)OC1=O (centres undefined),885
14,Cn1nccc1C(=O)N1CCN(c2nc3c(S(C)(=O)=O)cccc3s2)CC1,656
15,CCOC(=O)c1cc(S(=O)(=O)N2CCCC2C(=O)N2CCC3(CC2)OCCO3)cn1C (centres undefined),720
16,Cc1cccc(N2CCN(c3ccc4cc(S(=O)(=O)N5CCCCC5)ccc4n3)CC2)c1C,1320
17,O=C(NC1CCN(c2cc(-c3ccc(F)cc3)[nH]n2)C1)c1ccc(F)c(F)c1 (centres undefined),807
18,CCCCOc1ccc(CNC(=O)CN2CC=C(c3cnn(-c4ccccc4)c3)CC2)cc1,826
19,COc1ccc(CC(=O)N2C[C@@H]3C[C@H](NS(C)(=O)=O)[C@H]2C3)cc1Cl,651

# The next lines start with the values.
row,RP-LC retention time [s],Compound
1,853,CCCn1c(=O)c(C)nc2cc(-c3noc(CNS(=O)(=O)c4ccccc4)n3)ccc21
2,954,O=C(CCn1nnc2cc(-c3noc(/C=C/c4ccccc4)n3)ccc21)N1CCCC1
3,747,COc1ccc(NC(=O)C2CCc3nc(N4CCC(C)CC4)ncc3C2)c(C)c1 (centres undefined)
4,1240,CCC(Oc1ccccc1)C(=O)Nc1nc(-c2ccc(Cl)cc2)cs1 (centres undefined)
5,634,Cc1cc(C(=O)NCc2ccc(C)o2)c2ccccc2n1
6,716,CCn1cc(CN2CCC(C(=O)NCc3ccc(OC)cc3OC)CC2)c2cc(OC)ccc21
7,989,O=C(Cn1nc(N2CCCC2)c2ccccc2c1=O)Nc1cccc(Cl)c1
8,576,COc1ccc(NC(=O)CCNc2cnc3cnccn23)c(C)c1
9,735,O=C(CCc1ccccc1)N1CCC(c2noc(-c3cnccn3)n2)C1 (centres undefined)
10,666,CC(=O)Nc1c(C)noc1/C=C\c1ccc(C)c(S(=O)(=O)N2CCN(c3ccccn3)CC2)c1
11,683,CCCCOc1ccc(CNC(=O)CCc2ccc3nc(CC)[nH]c3c2)cc1
12,629,CN(C)C(=O)c1cn(C2CN(C(=O)Nc3ccccc3F)C2)nn1
13,969,Cc1cc(C)cc(NC(=O)Cc2ccc(OC(C)(C)C(=O)O)cc2)c1
14,811,CCOc1ccc(NC(=O)N(C)Cc2nc3ccccc3c(=O)n2CCOC)cc1
15,807,COc1ccccc1-c1noc(-c2nn(-c3ccc(F)c(F)c3)ccc2=O)n1
16,901,Cc1cccc(C)c1Nc1c(-c2ccc(F)cc2)nc2cnccn12
17,719,COCCC1CCN(C(=O)c2nccc3ccccc23)CC1
18,874,CCOCN(C(=O)Cn1c(COC)nc2ccccc21)c1c(C)cccc1CC
19,858,CC(C)CCNC(=O)c1ccc2c(=O)n(-c3ccccc3)c(N3CCCC3)nc2c1
20,880,COc1ccccc1-c1noc(Cn2c(=O)n(-c3ccccc3F)c(=O)c3sccc32)n1
21,865,COc1ccc(CCc2nc3nccc(-c4ccc(F)cc4)n3n2)cc1OC
22,552,O=C([C@@H]1C[C@H](Oc2cccnc2)CN1C(=O)c1cnccn1)N1CCCC1
23,722,Cc1cccc(-c2nc(C)c3c(n2)N(Cc2cccnc2)C(=O)CC3)c1
24,597,CC(C)n1cnc2cc(CNC(=O)c3ccccc3Cl)ccc21
25,554,CN(C(=O)Cn1c(CCO)nc2ccccc21)c1ccccc1
26,1130,COc1cccc(-c2nn3c(COc4ccc(Br)cc4)nnc3s2)c1OC

row,RP-LC retention time [s],Compound
1,876,CN(C)S(=O)(=O)c1ccc2c(c1)N(CC(=O)NCCc1cccs1)C(=O)C1CCCCN21 (centres undefined)
2,1120,CCCn1cc(C(=O)Nc2cccc(C)c2)c(S(=O)(=O)N2CCSCC2)n1
3,783,COc1cccc(CNC(=O)COc2cc(C)nc(N3CCN(c4ccccc4)CC3)n2)c1OC
4,741,COc1ccccc1-c1nc(-c2ccc3ncn(C(C)C)c3c2)no1
5,770,COCCCNC(=O)C1c2ccccc2C(=O)N1Cc1ccc(Cl)cc1 (centres undefined)
6,722,COc1cccc(C(=O)NC2CCN(c3cc(-c4cccs4)[nH]n3)C2)c1OC (centres undefined)
7,576,CCN(C(=O)Nc1ccccc1C(F)(F)F)c1nc(-c2ccc(C)cc2)cs1
8,897,Cc1cc(C)cc(NC(=O)N2CCCC(C)(C(=O)NCc3ccccc3C)C2)c1 (centres undefined)
9,746,COCCn1cc(CC(=O)NC2CCCCCC2)c2cccnc21
10,648,CC(C)c1ccc(CNC(=O)C2CCc3nc(N4CCCC4)ncc3C2)cc1 (centres undefined)
11,783,CN(C)c1nccnc1OC1CCN(C(=O)c2ccc(Cl)cc2)C1 (centres undefined)
12,874,CC(C)n1nc(CNC(=O)c2ccccn2)c2ccccc21
13,985,COc1ccc(-n2ccc(=O)c(-c3nc(-c4cccc(Br)c4)no3)n2)cc1
14,1070,CCc1cccc(C)c1NC(=O)Cn1cnc2c(sc3nc(-c4ccccc4)ccc32)c1=O
15,721,COc1ccccc1CNS(=O)(=O)c1ccc2c(c1)CCCC(=O)N2
16,1090,Cc1cccc(OCC(=O)Nc2nc(-c3ccccc3)cs2)c1
17,775,O=C(Nc1ccc(F)cc1)C1CC(=O)N(c2ccc3c(c2)CCN3C(=O)C2CC2)C1 (centres undefined)
18,1100,Cc1ccc(NC(=O)Cn2nc(N3CCCCCC3)c3ccccc3c2=O)c(C)c1
19,597,CCN1CCN(c2cc(C)c3cc(NC(=O)COc4ccc(OC)cc4)ccc3n2)CC1
20,1310,COc1ccc(N2CCN(c3ccc(-c4nc(-c5cccc(F)c5)no4)cn3)CC2)cc1
21,801,Fc1ccc(F)c(-c2nc(-c3ccc4nncn4c3)no2)c1
22,626,Cc1ccc(C(CNC(=O)c2cc(=O)c3ccccc3o2)N(C)C)cc1 (centres undefined)
23,638,COc1ncc(C(=O)Nc2ccc(F)cc2C)c(C)n1
24,644,COCCC(=O)N1CCCn2nc(-c3cccc(OC)c3)cc2C1
25,808,CCc1ccc2c(c1)cc(S(=O)(=O)c1ccccc1)c(=O)n2CC(=O)NCCCOC

# Source: the METLIN SMRT retention time set (Domingo-Almenara et al. 2019)
